The text below walks through data of ChEMBL document CHEMBL5728432, “Potent and selective mu opioid receptor modulators” (2021).

The target of the assay is Mu-type opioid receptor (Homo sapiens, UniProt P35372). Briefly: Competition Binding Assay: The competition binding assay was conducted to determine the affinity and selectivity of the synthesized compounds to MOR over KOR and DOR. The Kd and Bmax values for [3H]NLX at MOR and [3H]DPN at KOR had been determined previously. […] [3H]NLX was used to label MOR whilst [3H]DPN was used to label both DOR and KOR. The potency of the new compounds in displacing the specific binding of the radioligand was determined by linear regression analysis of Hill plots.
Sequence of Mu-type opioid receptor (P35372 whole entry): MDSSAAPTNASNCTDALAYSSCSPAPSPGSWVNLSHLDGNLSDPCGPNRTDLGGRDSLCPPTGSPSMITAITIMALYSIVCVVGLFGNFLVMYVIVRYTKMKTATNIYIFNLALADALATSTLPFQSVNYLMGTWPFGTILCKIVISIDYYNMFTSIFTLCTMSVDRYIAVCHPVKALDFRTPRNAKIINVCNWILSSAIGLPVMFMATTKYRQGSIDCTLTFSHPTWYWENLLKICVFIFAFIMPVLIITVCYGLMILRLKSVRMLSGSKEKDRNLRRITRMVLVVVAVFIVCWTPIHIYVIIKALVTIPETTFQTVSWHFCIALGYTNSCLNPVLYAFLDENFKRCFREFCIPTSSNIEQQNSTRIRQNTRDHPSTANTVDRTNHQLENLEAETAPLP
`O=C(N[C@H]1CC[C@@]2(O)[C@H]3Cc4ccc(O)c5c4[C@@]2(CCN3CC2CC2)[C@H]1O5)c1cc2ccccc2[nH]1`: affinity was put at a Ki of 0.363 nM.

`O=C(Cc1c[nH]c2ccccc12)N[C@H]1CC[C@@]2(O)[C@H]3Cc4ccc(O)c5c4[C@@]2(CCN3CC2CC2)[C@H]1O5` came in with a Ki of 0.837 nM.

As to `O=C(N[C@H]1CC[C@@]2(O)[C@H]3Cc4ccc(O)c5c4[C@@]2(CCN3CC2CC2)[C@H]1O5)c1ccc2[nH]ccc2c1`, the Ki worked out at 0.763 nM.

For the compound `O=C(CCc1c[nH]c2ccccc12)N[C@@H]1CC[C@@]2(O)[C@H]3Cc4ccc(O)c5c4[C@@]2(CCN3CC2CC2)[C@H]1O5`, the Ki was determined as 0.167 nM.

On to `O=C(CCCc1c[nH]c2ccccc12)N[C@@H]1CC[C@@]2(O)[C@H]3Cc4ccc(O)c5c4[C@@]2(CCN3CC2CC2)[C@H]1O5`, for which the Ki was found to be 0.203 nM.

For the compound `O=C(Cc1c[nH]c2ccccc12)N[C@@H]1CC[C@@]2(O)[C@H]3Cc4ccc(O)c5c4[C@@]2(CCN3CC2CC2)[C@H]1O5`, the Ki was 0.241 nM.

Regarding `O=C(N[C@H]1CC[C@@]2(O)[C@H]3Cc4ccc(O)c5c4[C@@]2(CCN3CC2CC2)[C@H]1O5)c1c[nH]c2ccccc12`, the Ki turned out to be 0.288 nM.

In turn, `O=C(CCc1c[nH]c2ccccc12)N[C@H]1CC[C@@]2(O)[C@H]3Cc4ccc(O)c5c4[C@@]2(CCN3CC2CC2)[C@H]1O5` yielded a Ki of 0.437 nM.

The compound `O=C(CCCc1c[nH]c2ccccc12)N[C@H]1CC[C@@]2(O)[C@H]3Cc4ccc(O)c5c4[C@@]2(CCN3CC2CC2)[C@H]1O5` yielded a Ki of 0.293 nM.

Compound `O=C(N[C@H]1CC[C@@]2(O)[C@H]3Cc4ccc(O)c5c4[C@@]2(CCN3CC2CC2)[C@H]1O5)c1ccc2cc[nH]c2c1` registered a Ki of 0.434 nM.

Compound `O=C(N[C@H]1CC[C@@]2(O)[C@H]3Cc4ccc(O)c5c4[C@@]2(CCN3CC2CC2)[C@H]1O5)c1cccc2[nH]ccc12` had a Ki of 0.264 nM.
